In patent publication US20120322829A1, “USE OF A DIPYRIDYL COMPOUND FOR TREATING ROSACEA” (GALDERMA RESEARCH & DEVELOPMENT, priority 2009, published 2012):

Columns and labels:
Type in all cases: biochemical
MMP-2 = biological target: T1, MMP-2 (Homo sapiens, UniProt P08253); experiment: MMP-2 activity, fluorometric detection of reaction product; details: 10 μM; human recombinant protein; remaining activity
T1 sequence (P08253 110-660): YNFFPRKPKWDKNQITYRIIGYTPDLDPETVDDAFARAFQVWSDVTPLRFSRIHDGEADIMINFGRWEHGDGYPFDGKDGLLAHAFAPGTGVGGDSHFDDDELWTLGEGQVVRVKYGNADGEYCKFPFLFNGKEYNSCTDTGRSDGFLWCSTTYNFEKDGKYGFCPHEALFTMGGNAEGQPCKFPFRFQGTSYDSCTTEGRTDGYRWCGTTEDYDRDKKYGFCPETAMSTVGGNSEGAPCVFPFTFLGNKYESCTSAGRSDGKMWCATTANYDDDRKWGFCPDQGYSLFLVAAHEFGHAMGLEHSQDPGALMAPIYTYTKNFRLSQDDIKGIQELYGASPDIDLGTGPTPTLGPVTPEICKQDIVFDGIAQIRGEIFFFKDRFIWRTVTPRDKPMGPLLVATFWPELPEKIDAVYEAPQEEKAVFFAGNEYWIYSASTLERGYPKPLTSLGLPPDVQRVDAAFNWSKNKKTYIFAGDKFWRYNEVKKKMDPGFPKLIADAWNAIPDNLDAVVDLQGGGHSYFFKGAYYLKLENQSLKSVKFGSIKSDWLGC
Protocol: (§1) The activity of MMPs of MMP-1, MMP-2, MMP-9, MMP-12, MMP-13 and TACE was measured using human recombinant proteins. The activity of MMP-8 was measured in human neutrophiles. After incubation with the corresponding substrate, the reaction product of each MMP was detected by fluorometry. The results are expressed as specific control activity percentages ((specific activity measured/specific control activity)×100) obtained in the presence of the compounds tested.

MMP-9 = MMP-9 (Homo sapiens, UniProt P14780); experiment: MMP-9 activity, fluorometric detection of reaction product; details: 10 μM; human recombinant protein; remaining activity
Chain of MMP-9 (P14780 94-707): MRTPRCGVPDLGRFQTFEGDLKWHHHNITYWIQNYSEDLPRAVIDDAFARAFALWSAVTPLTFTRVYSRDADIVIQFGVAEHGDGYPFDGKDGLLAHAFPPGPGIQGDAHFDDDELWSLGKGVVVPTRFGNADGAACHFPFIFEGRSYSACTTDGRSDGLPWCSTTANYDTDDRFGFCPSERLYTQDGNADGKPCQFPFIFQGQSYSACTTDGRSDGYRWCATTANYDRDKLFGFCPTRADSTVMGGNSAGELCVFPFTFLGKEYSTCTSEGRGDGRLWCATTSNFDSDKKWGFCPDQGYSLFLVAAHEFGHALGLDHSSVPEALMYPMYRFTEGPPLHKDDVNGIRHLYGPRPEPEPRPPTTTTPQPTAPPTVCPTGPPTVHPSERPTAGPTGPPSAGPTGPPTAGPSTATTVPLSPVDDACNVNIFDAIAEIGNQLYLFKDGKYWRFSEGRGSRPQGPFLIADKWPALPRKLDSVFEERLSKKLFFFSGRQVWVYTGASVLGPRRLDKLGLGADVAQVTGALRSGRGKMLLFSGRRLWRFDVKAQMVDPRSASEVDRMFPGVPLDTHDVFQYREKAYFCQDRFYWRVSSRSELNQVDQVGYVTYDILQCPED
Protocol: as §1

MMP-12 = MMP-12 (Homo sapiens, UniProt P39900); experiment: MMP-12 activity, fluorometric detection of reaction product; details: 10 μM; human recombinant protein; remaining activity
Chain of MMP-12 (P39900 106-470): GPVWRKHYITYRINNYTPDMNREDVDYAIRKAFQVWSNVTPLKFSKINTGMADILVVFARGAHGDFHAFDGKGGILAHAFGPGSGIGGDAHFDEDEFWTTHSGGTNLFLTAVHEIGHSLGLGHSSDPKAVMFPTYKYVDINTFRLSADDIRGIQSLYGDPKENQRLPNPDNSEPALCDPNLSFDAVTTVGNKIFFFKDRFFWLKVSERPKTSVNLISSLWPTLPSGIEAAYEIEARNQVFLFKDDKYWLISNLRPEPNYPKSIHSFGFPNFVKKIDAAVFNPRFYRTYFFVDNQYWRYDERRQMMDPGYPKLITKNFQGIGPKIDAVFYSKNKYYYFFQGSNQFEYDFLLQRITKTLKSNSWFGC
Protocol: as §1

MMP-1 = biological target: T2, MMP-1 (Homo sapiens, UniProt P03956); experiment: MMP-1 activity, fluorometric detection of reaction product; details: 10 μM; human recombinant protein; remaining activity
T2 sequence (P03956 100-469): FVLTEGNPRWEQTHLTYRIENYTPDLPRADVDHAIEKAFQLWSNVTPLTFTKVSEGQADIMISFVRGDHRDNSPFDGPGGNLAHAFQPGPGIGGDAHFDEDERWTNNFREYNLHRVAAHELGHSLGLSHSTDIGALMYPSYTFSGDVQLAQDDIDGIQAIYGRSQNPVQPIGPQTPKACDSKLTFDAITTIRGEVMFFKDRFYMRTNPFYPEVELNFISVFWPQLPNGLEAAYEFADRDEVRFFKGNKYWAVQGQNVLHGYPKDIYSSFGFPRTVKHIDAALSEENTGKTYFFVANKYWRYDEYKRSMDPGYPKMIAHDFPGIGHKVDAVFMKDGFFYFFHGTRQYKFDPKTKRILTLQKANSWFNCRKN
Protocol: as §1

[1] = biological target: TACE (TNF-alpha converting enzyme) (Homo sapiens, UniProt P78536); experiment: TACE activity, fluorometric detection of reaction product; details: 10 μM; human recombinant protein; remaining activity
Chain of TACE (TNF-alpha converting enzyme) (P78536 215-824): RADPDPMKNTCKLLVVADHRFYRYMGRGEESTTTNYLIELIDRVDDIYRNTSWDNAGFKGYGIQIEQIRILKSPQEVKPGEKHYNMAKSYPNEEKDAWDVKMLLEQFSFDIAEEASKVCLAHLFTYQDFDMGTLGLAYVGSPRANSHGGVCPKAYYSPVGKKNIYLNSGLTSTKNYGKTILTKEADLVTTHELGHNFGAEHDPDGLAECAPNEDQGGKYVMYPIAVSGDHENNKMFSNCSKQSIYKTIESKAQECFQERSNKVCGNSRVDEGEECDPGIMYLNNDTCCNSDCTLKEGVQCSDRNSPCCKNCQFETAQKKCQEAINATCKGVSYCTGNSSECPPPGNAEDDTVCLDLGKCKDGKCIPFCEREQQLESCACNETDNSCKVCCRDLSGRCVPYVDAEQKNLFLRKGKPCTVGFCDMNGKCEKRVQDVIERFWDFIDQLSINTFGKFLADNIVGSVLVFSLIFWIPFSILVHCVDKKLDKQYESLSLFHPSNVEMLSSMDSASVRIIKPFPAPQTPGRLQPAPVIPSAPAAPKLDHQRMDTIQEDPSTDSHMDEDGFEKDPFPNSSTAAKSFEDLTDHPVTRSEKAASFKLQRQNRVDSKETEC
Protocol: as §1

MMP-13 = MMP-13 (Homo sapiens, UniProt P45452); experiment: MMP-13 activity, fluorometric detection of reaction product; details: 10 μM; human recombinant protein; remaining activity
Protocol: as §1

MMP-14 = MMP-14 (Homo sapiens, UniProt P50281); experiment: MMP-14 activity; details: 10 μM; remaining activity
MMP-8 = biological target: T3, MMP-8 (Homo sapiens, UniProt P22894); experiment: MMP-8 activity measured in human neutrophiles, fluorometry; details: 10 μM, remaining activity
T3 construct: endogenous in cells; host or cells: human neutrophils
T3 sequence (P22894 101-467): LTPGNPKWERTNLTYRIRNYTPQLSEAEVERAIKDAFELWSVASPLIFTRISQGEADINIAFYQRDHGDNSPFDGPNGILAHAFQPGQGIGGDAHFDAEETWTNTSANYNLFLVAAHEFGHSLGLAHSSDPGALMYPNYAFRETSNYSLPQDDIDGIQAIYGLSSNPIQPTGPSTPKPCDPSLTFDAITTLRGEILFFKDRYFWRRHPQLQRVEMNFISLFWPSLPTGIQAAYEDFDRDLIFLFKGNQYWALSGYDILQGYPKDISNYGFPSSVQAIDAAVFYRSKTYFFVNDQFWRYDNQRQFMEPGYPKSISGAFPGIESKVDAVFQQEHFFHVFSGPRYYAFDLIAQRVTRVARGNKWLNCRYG
Protocol: as §1

SMILES | MMP activity (% of control values ± SD), MMP-2 (MMP-2) | MMP activity (% of control values ± SD), MMP-9 (MMP-9) | MMP activity (% of control values ± SD), MMP-12 (MMP-12) | MMP activity (% of control values ± SD), MMP-1 (MMP-1) | MMP activity (% of control values ± SD), TACE [1] | MMP activity (% of control values ± SD), MMP-13 (MMP-13) | MMP activity (% of control values ± SD), MMP-14 (MMP-14) | MMP activity (% of control values ± SD), MMP-8 (MMP-8)
Cc1ccnc(-c2cc(C)ccn2)c1 [4,4′-dimethyl-2,2′-dipyridyl] | 100.8 ± 6.0 % of control values | 88.5 ± 3.4 % of control values | 96.3 ± 1.0 % of control values | 94.3 ± 0.1 % of control values | 106.4 ± 1.2 % of control values | 90.0 ± 4.1 % of control values | 90.8 ± 4.7 % of control values | 86.5 ± 7.4 % of control values
Cc1ccc(-c2ccc(C)cn2)nc1 [5,5′-dimethyl-2,2′-dipyridyl] | 86.4 ± 2.2 % of control values | 86.0 ± 3.4 % of control values | 93.4 ± 0.4 % of control values | 96.1 ± 0.3 % of control values | 100.8 ± 2.1 % of control values | 89.4 ± 1.2 % of control values | 90.2 ± 4.1 % of control values | 88.3 ± 6.7 % of control values
Cc1cccc(-c2cccc(C)n2)n1 [6,6′-dimethyl-2,2′-dipyridyl] | 95.9 ± 7.5 % of control values | 101.0 ± 3.3 % of control values | 96.3 ± 1.0 % of control values | 98.8 ± 0.7 % of control values | 100.3 ± 0.2 % of control values | 96.2 ± 2.6 % of control values | 84.3 ± 3.0 % of control values | 95.0 ± 6.5 % of control values
